“Also recorded” adds a separate entry of the source.
Columns and labels:
BAEC [1] = assay: Measurement of LDH activity, rate of cell damage of BAEC
Experimental: A rate of cell damage of BAEC by the sample was evaluated by measuring free LDH activity in a culture medium using a kit for LDH-cytotoxicity testing (Wako Co.)
(§1) BAEC with confluent growth were treated with trypsin, and suspended in MEM | 10% FBS in a concentration of 5×10^4 cell/ml. The cell suspension was placed in each well of a 96 well-microplate in an amount of 100 μl/well, and incubated overnight in a CO2 incubator. The culture solution in each well was removed, and changed to 100 μl culture medium (MEM+2% FBS) containing a sample to continue incubation. In the experiment, MEM+2% FBS was employed as a negative control (NC), and 2% Tween 20 dissolved in MEM | 2% FBS was employed as a positive control (PC). After 48 hours, 50 μl culture medium in each well was transferred to a new well, and the color producing reagent in the kit was added to the new wells in an amount of 50 μl/well. After incubating for 45 minutes at room temperature, reaction was terminated by adding 100 μl of 0.5 N HCL/well, and absorbance at 595 nm was measured. The rate of cell damage was determined by the following formula:
(§2) Rate of Cell Damage=(S−N)/(P−N)×100(%)
N: Absorbance of negative control
P: Absorbance of positive control
In Control group G, no sample was added.
The assay was carried out in the same manner as Example 30, except that the tocotrienol was replaced by α-tocopherol.

BAEC [2] = assay: Inhibitory action against FGF activity, MTT assay on BAEC with FGF 20 ng/ml; format: cell-based, bovine; parameters: key to Cell Multiplication: ↑: Accelerated; /: Tendency to increase; No change; ↓: Inhibited; ↓↓: Strongly inhibited; conditions: for Absorbance: MTT, FGF 20 ng/ml + sample 10 μM
Experimental: The fibroblast growth factor sample was prepared by dissolving a commercial FGF (Sigma Chemical Co.) in MEM (Sigma Chemical Co.)
(§3) Each one microplate was taken out after 0, 24, 48 or 96 hours from placing the culture medium containing a sample. In the case of the microplate taken out after 96 hours, the culture medium was once changed after 48 hours. 3 mg/ml MTT solution PBS (−) was put in each well in an amount of 50 μl/well, and incubated for 3 hours in a CO2 incubator. After filling each well with phosphate buffered saline (PBS(−)), liquid in each well was evacuated, and isopropyl alcohol containing 0.04 mol/l HCL was put in each well in an amount of 200 μl/well. The microplates were allowed to stand overnight in a dark place, and then, absorbance at 595 nm and 655 nm (dual) was measured by a microplate reader.
In the case of Control group B, no sample was added.

BAEC [3] = assay: Cell multiplication of BAEC, survival rate of cells using WST-1; format: cell-based, bovine; conditions: for Survival Rate of Cells (% of control): 24 hours, WST-1
Experimental: Influence of tocotrienols on cell multiplication of BAEC was examined in various concentrations. The cell multiplication was evaluated by determining the survival rate of cells using WST-1, which makes it possible to conduct high sensitivity measurement, instead of conventional MTT.
As a blank, the culture medium alone was incubated without adding cells. […] The microplate was taken out after 24 hours from placing the culture medium containing a sample. 10 μl/well of WST-1 solution was added to each well, and incubated in a CO2 incubator. After 3 hours, absorbance at 450 nm and 655 nm (dual) of each well was measured by a microplate reader.
The samples employed were DL-α-tocotrienol, DL-γ-tocotrienol and DL-δ-tocotrienol. In the case of Control group I, no sample was added.
The survival rate of cells was determined by the following formula:
Survival Rate of Cells=(S−B)/(C−B)×100(%)
The results of Table 10 were made in a graph shown in FIG. 1, and median growth inhibition concentration (IC50) was determined from the graph. In the figure, the numbers on the ordinate indicate the survival rate of cells (% of control), and the numbers on the abscissa indicate concentration (μM). ● is DL-α-tocotrienol, ▪ is DL-β-tocotrienol, Δ is DL-γ-tocotrienol, and X is DL-δ-tocotrienol, respectively.

BAEC [4] = assay: Cell damage action (LDH) with FGF added; conditions: FGF 20 ng/ml + sample 10 μM
Experimental: as §1, §2
Cell damage action of DL-α-tocotrienol, DL-β-tocotrienol, DL-γ-tocotrienol, DL-δ-tocotrienol and the tocotrienol mixture was examined against FGF. […] In Control group H, no sample was added.
The assay was carried out in the same manner as Example 36, except that the tocotrienol was replaced by α-tocopherol.

BAEC [5] = assay: Neovasculation / lumen formation of BAEC between two layers of type I collagen gel; format: cell-based, bovine
Experimental: BAEC was cultured between two layers of type I collagen gel, and a lumen-like netting structure formed therebetween was evaluated.
(§4) Eight parts by volume of “Vitrogen Collagen” (Collagen Co.), 1 part by volume of 0.1 N NaOH and 1 part by volume of ×10 MEM (GIBCO BRL) were placed in a tube, and mixed quickly in an ice bath. The culture solution was removed by suction, and 0.5 ml/well of the above mixture containing collagen was pipetted into each well. The microplate was placed in a CO2 incubator for about 30 minutes to gelatinize it. 1.5 ml of a medium (MEM | 2% FBS) containing a sample was added, and continued to incubate while changing the medium every second day.
(§5) The variation of cells were observed by a microscope by taking a photograph, and lumen formation was evaluated by counting the number of branches of cells forming lumen.
The inhibition test against lumen formation was carried out in the same manner as Example 15, except that α-tocopherol was substituted for DL-α-tocotrienol.

BAEC [6] = assay: Inhibition against lumen formation induced by FGF; format: cell-based, bovine; parameters: key to Lumen Formation: ↑: Accelerated; /: Tendency to increase; No change; ↓: Inhibited; ↓↓: Strongly inhibited
Experimental: as §4, §5
The test was carried out similar to Examples 12-14, wherein FGF was added together with each tocotrienol. In the case of Control group E, no sample was added. […]

BAEC [7] = assay: Effects of tocotrienols on multiplication of BAEC, MTT assay; format: cell-based, bovine; conditions: for Absorbance: MTT, sample 10 μM
Experimental: Normal bovine aortic endothelial cells (BAEC) were manufactured by Cell Systems Co., and purchased through Dainippon Seiyaku Co., Ltd.
A cell suspension was prepared by adding the cells to MEM (Sigma Chemical Co.) containing 10 v/v (%) fetal bovine serum (FBS), 20 IU/ml penicillin and 20 IU/ml streptomycin (MEM+10% FBS) in a concentration of 1×10^5 cells/ml, and cultured in a 5% CO2 incubator at 37° C. by using a 60 mm dish coated with type I collagen with subculturing every 2 to 3 days.
Each of the above samples was added to MEM containing 2% (v/v) FBS, 20 IU/ml penicillin and 20 IU/ml streptomycin (MEM+2% FBS), and subjected to testing.
Effects of tocotrienols on the multiplication of BAEC were examined by using MTT assay.
as §3
In the case of Control group A, no sample was added.

[8] = summary, FGF (20 ng/ml) + sample (10 μM)

## CC(C)=CCC/C(C)=C/CC/C(C)=C/CC[C@]1(C)CCc2cc(O)c(C)c(C)c2O1 (racemic) [DL-γ-Tocotrienol, γ-tocotrienol]
BAEC [1]; 10 μM, Table 7
  activity to damage cells: have an activity to damage cells
BAEC [1]; Table 7, 10 μM, 48 hours
  Rate of Cell Damage (% of control): 265.33 ± 3.18 % of control
BAEC [2]; 0 hr
  Absorbance: 0.042 ± 0.002
BAEC [2]; 24 hrs
  Absorbance: 0.085 ± 0.004
BAEC [2]; 48 hrs
  Absorbance: 0.232 ± 0.016
BAEC [2]; 96 hrs
  Absorbance: 0.431 ± 0.011
BAEC [2]; [8]
  Cell Multiplication: ↑
BAEC [3]; 10 μM
  Survival Rate of Cells (% of control): 102.3 ± 10.8 % of control
BAEC [3]; 12 μM
  Survival Rate of Cells (% of control): 15.5 ± 4.5 % of control
BAEC [3]; 14 μM
  Survival Rate of Cells (% of control): 3.4 ± 3.1 % of control
BAEC [3]; 16 μM
  Survival Rate of Cells (% of control): 0.0 ± 0.1 % of control
BAEC [3]; 18 μM
  Survival Rate of Cells (% of control): 2.0 ± 2.8 % of control
BAEC [3]; determined from the graph of FIG. 1 (abscissa μM), read-out: median growth inhibition concentration (IC50)
  IC50: 11 µM
BAEC [4]
  Rate of Cell Damage (% of control): 101.15 ± 2.38 % of control
BAEC [5]; 10 μM
  inhibition of lumen formation: inhibited lumen formation sufficiently
BAEC [5]; Table 4, 10 μM
  Number of Cells Forming Lumen/cm^2: 4.75 ± 0.48 /cm^2
BAEC [6]; 10 μM + FGF 20 ng/ml
  inhibition of lumen formation induced by FGF: inhibited the lumen formation induced by FGF; also recorded: exhibit inhibitory action against lumen formation
BAEC [6]; sample 10 μM + FGF 20 ng/ml
  Number of Cells Forming Lumen/cm^2: 12.50 ± 3.20 /cm^2
BAEC [6]; [8]
  Lumen Formation: ↓
BAEC [7]; 10 μM, Table 1
  inhibitory action against cell multiplication: remarkable inhibitory action
BAEC [7]; 0 hr
  Absorbance: 0.101 ± 0.002
BAEC [7]; 24 hrs
  Absorbance: 0.020 ± 0.001
BAEC [7]; 48 hrs
  Absorbance: 0.010 ± 0.002
BAEC [7]; 96 hrs
  Absorbance: 0.003 ± 0.000

— US6608103B2, “Inhibitor for neovasculation, cell multiplication, lumen formation and FGF” (Fuji Chemical Industry Co., Ltd., priority 2001, dated 2003)
